In patent US20260014125A1, “BICYCLIC-TYPE MAT2A INHIBITOR AND USE THEREOF” (HAIHE BIOPHARMA CO., LTD., priority 2022, published 2026) one finds IC50 data, which are given here for 44 molecules.

SMILES strings stand for the structures. Some results are limits rather than exact numbers.

As a reminder, the IC50 is the concentration that inhibits the measured activity by half. A higher IC50 goes with lower potency.

The subject of the first assay is KP-4 cells. In words: Human pancreatic cancer KP-4 cell activity inhibition test (CellTiter-Glo). Format: cell-based. The conditions noted are these: Homo sapiens, 120 h, 5 days. On the procedure:
Experimental principle: after co-incubating the MAT2A inhibitor to be tested with KP-4 cells for a period of time, a cell viability measurement method based on ATP content is used to characterize the effect of the tested compound on cell viability.
Experimental material: KP-4 cells (JCRB #JCRB0182); IMDM (Gibco 912440061); fetal bovine serum (EXCELL #FND500); penicillin-streptomycin (Gibco #15140-122); 0.25% Typsin-EDTA (Gibco #252(101-072); DMSO (Sigma #D2650); 96 well plate (Corning #3610); CellTiter-Glo (Promega #G7571)
1. KP-4 cells were cultured in IMDM culture medium containing 10% e fetal bovine serum and 1% penicillin-streptomycin at 37° C. and 5% CO2 in a cell culture incubator. Only cells in logarithmic growth phase were used for subsequent experiments.
2. The cells in logarithmic growth phase were inoculated into a 96 well plate, with a seeding quantity of 500 cells per well, and incubated overnight in a cell culture incubator at 37′C and 5% CO2.
3. The compound was dissolved with DMSO, diluted with culture medium to 10 different concentrations (approximately […]), 3333.3, 1111.1, 370, 123, 41.2, 13.7, 4.6, 1.5, and 0.5 nM) before adding it to the cell plate, and cultured at 37° C. and 5% CO2 for 5 days.
4. CellTiter-Glo reagent was added, and an enzyme-linked immunosorbent assay reader was used to detect cell viability.
Data analysis: the inhibition rate (%) of the compound was calculated and fitted to obtain the IC50 of the tested compound. Calculation method for compound inhibition rate: Compound inhibition rate (%)=(Signal_max−Signal_sample)/(Signal_max−Signal_min)×100, wherein Signal_sample was the sample well reading, indicating the cell activity of the compound inhibition well; Signal_min was the positive control well reading, indicating the background activity without cells; and Signal_max was the negative control well reading, indicating the cell activity of the well without compound inhibition.
(Cellular ATP, detected with luciferase, serves as a proxy for viable cell number.)
Molecule `CCOc1c(-c2ccc(C(F)(F)F)nc2)c(=O)n(-c2ccc3nn(CC)cc3c2)c2[nH]ncc12` [Compound 102] had an IC50 of 41.1 nM. This lies in the double-digit nanomolar range.
The same measure, in the same setting: the same measure for `CCOc1c(-c2ccc(OC(F)F)cc2)c(=O)n(-c2ccc3nn(C4CNC4)cc3c2)c2[nH]ncc12` [Compound 38]: 149 nM; for `CCOc1c(-c2ccc(Cl)cc2)c(=O)n(-c2ccc3nn(C)nc3c2)c2[nH]ncc12` [Compound 127]: 8.9 nM.
Same read-out and setting: then `CCOc1c(-c2ccc(Cl)cc2)c(=O)n(-c2ccc3nnn(C)c3c2)c2[nH]ncc12` [Compound 128], with 1.2 nM; and `CCOc1c(-c2ccc(OC(F)F)cc2)c(=O)n(-c2ccc3ncnn3c2)c2[nH]ncc12` [Compound 25], with 274 nM.
Still for that read-out and setting: the same measure for `CCOc1c(-c2ccc(OC(F)F)cc2)c(=O)n(-c2ccc3nn(CCOC)cc3c2)c2[nH]ncc12` [Compound 21]: 18.9 nM.
`CCOc1c(-c2ccc(OC(F)F)cc2)c(=O)n(-c2ccc3nccn3c2)c2[nH]ncc12` [Compound 24] returned an IC50 of 256 nM. This IC50 lies about 14-fold higher than the previous one.
Consider `CCOc1c(-c2ccc(OC(F)F)cc2)c(=O)n(-c2ccn3nccc3c2)c2[nH]ncc12` [Compound 23], for which the IC50 came to 89.2 nM.

In the next assay the target is MAT2A (Homo sapiens (Human), UniProt P31153). In words: Biochemical test: inhibition of MAT2A enzyme activity (phosphate detection, OD620). The conditions noted are these: MAT2A his-tag; 150 minutes enzymatic reaction. The text has this: Experimental principle: MAT2A can catalyze the conversion of L-methionine and ATP into SAM, inorganic phosphate, and inorganic diphosphate. By adding a chromogenic reagent to the enzymatic reaction system, the content of inorganic phosphates in a sample can be quantitatively detected, thereby characterizing the enzymatic activity of MAT2A.
Chain of MAT2A (P31153 whole entry): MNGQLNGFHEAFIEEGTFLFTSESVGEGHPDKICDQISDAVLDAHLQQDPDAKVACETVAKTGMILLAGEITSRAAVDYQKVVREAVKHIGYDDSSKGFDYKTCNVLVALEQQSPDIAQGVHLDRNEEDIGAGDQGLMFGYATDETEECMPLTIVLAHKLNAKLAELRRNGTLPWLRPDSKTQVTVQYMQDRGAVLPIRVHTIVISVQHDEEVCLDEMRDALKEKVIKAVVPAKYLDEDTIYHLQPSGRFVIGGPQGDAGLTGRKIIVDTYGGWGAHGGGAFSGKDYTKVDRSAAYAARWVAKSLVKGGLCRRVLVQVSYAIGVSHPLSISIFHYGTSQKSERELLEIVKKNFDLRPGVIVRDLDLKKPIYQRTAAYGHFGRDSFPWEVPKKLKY
Experimental material: Tris (Life Science #0497); BSA (Sigma #); MAT2A his-tag (BPS #71401-1); 384 well plate (Corning #3765); L-methionine (Admas #1100469); ATP (Sigma #A7699); MgCl2 (Sigma #M8266); KCl (Sigma #7447-40-7); Brij35 (Sigma #B4184); EDTA (Sigma #E1644)
1. 1×Assaybuffer (buffer composition: Tris, KCl, MgCl2, BSA, Brij35, and EDTA; the solvent was ultrapure water) was prepared. MAT2A his-tag enzyme solution (containing 1.3 μL of MAT2A enzyme and 998.7 μL of 1×Assaybuffer per 1000 μL) and substrate mixed solution (containing 5 μL of ATP, 1.3 μL of L-methionine, and 993.7 μL of 1×Assaybuffer per 1000 μL) were prepared using 1×AssayBuffer.
2. Preparation of compound concentration gradient: The test compound was tested with a starting concentration of 10 μM, and 10 equimolar concentrations were set according to a 3-fold dilution. Specifically, firstly, the compound was diluted into 10 different concentrations of series solutions in a 384 well plate (with final detection concentrations of 10, 3.33, 1.11, 0.37, 0.123, 0.041, 0.0137, 0.0046, 0.0015, and 0.0005 μM), and then 250 nL of the above series solutions was transferred to the 384 well reaction plate using an ultrasonic pipetting system Echo550 for later use. 250 nL of 100% DMSO was added into a negative control well and a positive control well, respectively. Double well test.
3. 15 μL of MAT2A his-tag enzyme solution was added into both the compound well and the positive control well; and 15 μL of 1×Assaybuffer was added into the negative control well.
4. The 384 well plate reaction plate was centrifuged at 1000 rpm for 60 seconds, shaken, mixed well, and incubated for 15 minutes. 10 μL of substrate mixed solution was added into each experimental well of the 384 well reaction plate to initiate the reaction.
5. The 384 well reaction plate was centrifuged at 1000 rpm for 60 seconds, shaken, mixed well, and incubated for 150 minutes.
6. 50 μL of enzyme reaction termination solution Biomol was added into all experimental wells of the 384 well reaction plate to terminate the reaction, centrifuged at 1000 rpm for 60 seconds, and incubated for 15 minutes. OD620 was read and data was processed.
Data analysis: the inhibition rate (%) of the compound was calculated and fitted to obtain the IC50 of the tested compound. Calculation method for compound inhibition rate: Compound inhibition rate (%)=(OD620_max−OD620_stample)/(OD620_max−OD620_min)×100, wherein OD620_stample was the absorbance value of the sample well; OD620 min was the absorbance value of the positive control well, indicating the reading of the wells without enzyme activity; and OD620_max was the absorbance value of the negative control well, indicating the reading of the well without compound inhibition.
`CCOc1c(-c2ccc(C(F)(F)F)nc2)c(=O)n(-c2ccc3nn(CC)cc3c2)c2[nH]ncc12` [Compound 102] gave an IC50 of 20.6 nM.
As to `CCOc1c(-c2ccc(Cl)cc2)c(=O)n(-c2ccc3nn(C)cc3c2)c2cn(C)nc12` [Compound 56], 24.4 nM corresponded to half-maximal inhibition (IC50).
In turn, `CCOc1c(-c2ccc(OC(F)F)cc2)c(=O)n(-c2ccc3nn(C4CNC4)cc3c2)c2[nH]ncc12` [Compound 38] yielded an IC50 of 18.6 nM. This IC50 and that of the molecule before are within 1.5-fold of each other.
`CCOc1c(-c2ccc(Cl)cc2)c(=O)n(-c2ccc3nn(C)nc3c2)c2[nH]ncc12` [Compound 127] had an IC50 of 12.4 nM.
For the molecule `CCOc1c(-c2ccc(Cl)cc2)c(=O)n(-c2ccc3nn(C)cc3c2)c2cnn(C)c12` [Compound 100], it took 62.4 nM to reach half-maximal inhibition (IC50). Against the preceding molecule, the IC50 is about 5-fold higher.
Still for that read-out and setting: the same measure for `CCOc1c(C2CCCCC2)c(=O)n(-c2ccc3nn(C)cc3c2)c2[nH]ncc12` [Compound 61]: 14.2 nM; for `CCOc1c(-c2ccc(Cl)cc2)c(=O)n(-c2ccc3nnn(C)c3c2)c2[nH]ncc12` [Compound 128]: 8.6 nM; for `CCOc1c(-c2ccc(OC(F)F)cc2)c(=O)n(-c2ccc3nn(C)cc3c2)c2c1cnn2C` [Compound 31]: 120 nM.
The molecule `Cn1cnc2ccc(-n3c(=O)c(-c4ccc(OC(F)F)cc4)c(OCC4CC4)c4cn[nH]c43)cc21` [Compound 32] yielded an IC50 of 14.6 nM.
Regarding `CCOc1c(-c2ccc(C)nc2)c(=O)n(-c2ccc3nn(C)cc3n2)c2[nH]ncc12` [Compound 86], the IC50 was determined as 20.3 nM.
Same read-out and setting: the same measure for `CCOc1c(-c2ccc(C)nc2)c(=O)n(-c2ccc3nn(C)cc3c2)c2[nH]ncc12` [Compound 48]: 16.3 nM; for `CCOc1c(-c2ccc(Cl)cc2)c(=O)n(-c2ccc3ncn(C4CNC4)c3c2)c2[nH]ncc12` [Compound 35]: 60.8 nM.
Same read-out and setting: the same measure for `CCOc1c(-c2ccc(Cl)cc2)c(=O)n(-c2ccn3nccc3c2)c2[nH]ncc12` [Compound 114]: 67.3 nM; for `CCOc1c(-c2ccc(=O)[nH]c2)c(=O)n(-c2ccc3nn(C)cc3c2)c2[nH]ncc12` [Compound 125]: 45.3 nM.
Still for that read-out and setting: the same measure for `CCOc1c(-c2ccc(C#N)cc2)c(=O)n(-c2ccc3nn(C)cc3c2)c2[nH]ncc12` [Compound 65]: 16 nM; for `CCSc1c(-c2ccc(Cl)cc2)c(=O)n(-c2ccc3nn(C)cc3c2)c2[nH]ncc12` [Compound 130]: 11.2 nM; for `Cc1ccc(-c2c(OCC(F)(F)F)c3cn[nH]c3n(-c3ccc4nn(C)cc4n3)c2=O)cn1` [Compound 89]: 16 nM.
`Cn1cc2cc(-n3c(=O)c(-c4ccc(Cl)cc4)c(OCCO)c4cn[nH]c43)ccc2n1` [Compound 59] returned a concentration for half-maximal inhibition (IC50) of 20.7 nM.
For the molecule `[2H]C([2H])([2H])C([2H])([2H])Oc1c(-c2ccc(Cl)cc2)c(=O)n(-c2ccc3nn(C)cc3c2)c2[nH]ncc12` [Compound 142], the IC50 was 10.3 nM. Against the preceding molecule, the IC50 is about 2-fold lower.
Still for that read-out and setting: then `CCNc1c(-c2ccc(Cl)cc2)c(=O)n(-c2ccc3c(c2)ncn3C)c2[nH]ncc12` [Compound 16], with greater than 10000 nM; and `CCOc1c(-c2ccc(C)nc2)c(=O)n(-c2ccc3nn(CC)cc3c2)c2[nH]ncc12` [Compound 101], with 17.4 nM; and `CCOc1c(-c2ccc(Cl)cc2)c(=O)n(-c2ccc3nnn(C)c3c2)c2nn(C)cc12` [Compound 140], with 13 nM.
Same read-out and setting: then `CCOc1c(-c2ccc(Cl)cc2)c(=O)n(-c2ccn3nc(C)cc3n2)c2[nH]ncc12` [Compound 116], with 335 nM; and `CCOc1c(-c2ccc(Cl)cc2)c(=O)n(-c2ccc3c(cnn3CCN(C)C)c2)c2[nH]ncc12` [Compound 131], with 36.2 nM.
The same measure, in the same setting: the same measure for `CCOc1c(-c2ccc(Cl)cc2)c(=O)n(-c2ccc3nn(C)cc3n2)c2c1cnn2C` [Compound 121]: 1120 nM; for `CCOc1c(-c2ccc(Cl)cc2)c(=O)n(-c2ccc3nn(C)nc3n2)c2nn(C)cc12` [Compound 138]: 50.7 nM; for `COCCOc1c(-c2ccc(Cl)cc2)c(=O)n(-c2ccc3nn(C)cc3c2)c2[nH]ncc12` [Compound 60]: 14.2 nM.
In turn, `CCOc1c(-c2ccc(Cl)cc2)c(=O)n(-c2ccc3nn(C)nc3c2)c2nn(C)cc12` [Compound 136] yielded an IC50 of 17.9 nM.
As to `CCCc1c(-c2ccc(Cl)cc2)c(=O)n(-c2ccc3nn(C)cc3c2)c2[nH]ncc12` [Compound 112], inhibition was half-maximal at 18.3 nM (IC50).
Molecule `CCOc1c(-c2ccc(Cl)cc2)c(=O)n(-c2ccc3ncn(CC)c3c2)c2[nH]ncc12` [Compound 34] displayed an IC50 of 22.1 nM.
Still for that read-out and setting: the same measure for `CCOc1c(-c2ccc(OC(F)F)cc2)c(=O)n(-c2cnc3nn(C)cc3c2)c2[nH]ncc12` [Compound 40]: 55.8 nM.
Molecule `CCN(C)c1c(-c2ccc(Cl)cc2)c(=O)n(-c2ccc3nn(C)cc3c2)c2[nH]ncc12` [Compound 64] registered an IC50 of 18.5 nM.
Molecule `CCNc1c(-c2ccc(OC)cc2)c(=O)n(-c2ccc(C#N)cc2)c2[nH]ncc12` [Compound 6] registered an IC50 of 708 nM.
Still for that read-out and setting: the same measure for `CCOc1c(-c2ccc(C(F)(F)F)nc2)c(=O)n(-c2ccc3nn(C)cc3n2)c2[nH]ncc12` [Compound 87]: 28.3 nM; for `CCOc1c(-c2ccc(Cl)cc2)c(=O)n(-c2ccc3nn(C)cc3c2)c2nn(CCO)cc12` [Compound 122]: 27.7 nM.
On the same count and under the same terms, the same measure for `CCOc1c(-c2ccc(Cl)cc2)c(=O)n(-c2ccc3nn(C)cc3c2)c2[nH]cnc12` [Compound 67]: 17.8 nM; for `CCOc1c(-c2ccc(C)cc2)c(=O)n(-c2ccc3nn(C)cc3n2)c2[nH]ncc12` [Compound 133]: 27.4 nM.
On the same count and under the same terms, the same measure for `CCOc1c(-c2cccc(OC)c2)c(=O)n(-c2ccc3nn(C)cc3c2)c2[nH]ncc12` [Compound 18]: 22.9 nM; for `Cn1cc2cc(-n3c(=O)c(-c4ccc(OC(F)F)cc4)c(OCC4CC4)c4cn[nH]c43)ccc2n1` [Compound 39]: 15 nM.
The molecule `CCOc1c(-c2ccc(Cl)cc2)c(=O)n(-c2ccc3c(cnn3CCN(C)C)n2)c2[nH]ncc12` [Compound 139] showed a concentration for half-maximal inhibition (IC50) of 376 nM.
